Laboratory results as given in patent publication US20120231972A1, “Probe Compound for Detecting and Isolating Enzymes and Means and Methods Using the Same” (priority 2009, published 2012).
In brackets after ≈: the same amount, converted by molar mass.

Experiment: physchem
Format: physicochemical
Details: water

Structure (SMILES): CC[N+]1=C(/C=C/C=C2/N(CCCCCC(=O)N[C@H](Cc3c[nH]cn3)C(=O)O)c3ccc(S(=O)(=O)[O-])cc3C2(C)C)C(C)(C)c2cc(S(=O)(=O)NCCCC(=O)OCCN(C)C)ccc21 [compound (E), Cy3-His-4-amino-3-butyric acid (N,N-dimethylamino) ethylester]
- solubility: ~240 mM (≈ 222 mg/mL)
